The values below come from patent US20260035403A1, “NUCLEOSIDE LINE-1 INHIBITORS” (TRANSPOSON THERAPEUTICS, INC., priority 2022, published 2026).

SMILES strings stand for the structures.

The first experiment has as its system human LINE-1. The experiment is described as follows: Human LINE-1 retrotransposition assay (HeLa cell-based dual-luciferase reporter). The conditions noted are these: Homo sapiens, HeLa, 72 h, Human LINE-1 activity inhibition; HeLa cells, reporter plasmid pYX017, Firefly/Renilla, 72 h incubation. The essentials:
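HeLa cells transfected with pYX017 dual-luciferase L1 reporter and treated with serially diluted compound (0.2% DMSO final) for 72 h at 37° C. Relative L1 activity as Firefly/Renilla ratio; IC50 from four-parameter logistic fit.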
Broadly, the IC50 is the concentration needed to halve the response being measured. Low readings indicate greater potency in that assay, high ones weaker potency in that assay. `C=C[C@]1(CO)O[C@@H](n2cnc3c(OC)nc(N)nc32)C[C@@H]1O` [Cpd. No. 102, (2R,3S,5R)-5-(2-amino-6-methoxy-9H-purin-9-yl)-2-(hydroxymethyl)-2-vinyltetrahydrofuran-3-ol] registered an IC50 of 1780 nM.
Same read-out and setting: the same measure for `C#C[C@]1(CO)O[C@H](n2cc(C)c(=O)[nH]c2=O)C[C@@H]1O` [compound 50, 1-((2S,4S,5R)-5-ethynyl-4-hydroxy-5-(hydroxymethyl)tetrahydrofuran-2-yl)-5-methylpyrimidine-2,4(1H,3H)-dione]: 25500 nM; for `C=C[C@]1(CO)OC(n2cc(OC)c(=O)[nH]c2=O)C[C@@H]1O` (stereo partly drawn) [compound 66, 1-((4S,5R)-4-hydroxy-5-(hydroxymethyl)-5-vinyltetrahydrofuran-2-yl)-5-methoxypyrimidine-2,4(1H,3H)-dione]: 738 nM.
The compound `C#C[C@]1(CO)O[C@H](n2ccc(N)nc2=O)C[C@@H]1O` [compound 32, 4-amino-1-((2S,4S,5R)-5-ethynyl-4-hydroxy-5-(hydroxymethyl)tetrahydrofuran-2-yl)pyrimidin-2(1H)-one] displayed an IC50 of 840 nM.
Consider `C#C[C@@]1(COC)C=C[C@H](n2cc(C)c(=O)[nH]c2=O)O1` [compound 106, 1-((2R,5R)-5-ethynyl-5-(methoxymethyl)-2,5-dihydrofuran-2-yl)-5-methylpyrimidine-2,4(1H,3H)-dione], for which the concentration for half-maximal inhibition (IC50) was 24000 nM.
In turn, `C#C[C@]1(CO)O[C@@H](n2cc(C)c(=O)[nH]c2=O)C[C@H]1O` [compound 29, 1-((2R,4R,5R)-5-ethynyl-4-hydroxy-5-(hydroxymethyl)tetrahydrofuran-2-yl)-5-methylpyrimidine-2,4(1H,3H)-dione] displayed an IC50 greater than 50000 nM.
Compound `CC[C@]1(CO)OC(n2cc(OC)c(=O)[nH]c2=O)C[C@@H]1O` (stereo partly drawn) [Cpd. No. 68, 1-((4S,5R)-5-ethyl-4-hydroxy-5-(hydroxymethyl)tetrahydrofuran-2-yl)-5-methoxypyrimidine-2,4(1H,3H)-dione] showed an IC50 of 721 nM.
In turn, `C=C[C@]1(CO)O[C@H](n2cc(C)c(=O)[nH]c2=O)C[C@@H]1O` [compound 63, 1-((2S,4S,5R)-4-hydroxy-5-(hydroxymethyl)-5-vinyltetrahydrofuran-2-yl)-5-methylpyrimidine-2,4(1H,3H)-dione] returned an IC50 greater than 12500 nM.
`C#C[C@]1(CO)O[C@H](n2cc(C)c(N)nc2=O)C[C@@H]1O` [compound 56, 4-amino-1-((2S,4S,5R)-5-ethynyl-4-hydroxy-5-(hydroxymethyl)tetrahydrofuran-2-yl)-5-methylpyrimidin-2(1H)-one]: the half-maximal inhibitory concentration (IC50) is greater than 50000 nM.
For `C=C[C@]1(CO)O[C@H](n2cnc3c(O)nc(N)nc32)C[C@@H]1O` [compound 87, 2-amino-9-((2S,4S,5R)-4-hydroxy-5-(hydroxymethyl)-5-vinyltetrahydrofuran-2-yl)-9H-purin-6-ol], the IC50 is 173 nM.
`C#C[C@@]1(CO)C=C[C@H](n2cnc3c(OC)nc(Cl)nc32)O1` [compound 41, ((2R,5R)-5-(2-chloro-6-methoxy-9H-purin-9-yl)-2-ethynyl-2,5-dihydrofuran-2-yl)methanol] came in with an IC50 greater than 50000 nM.
Compound `C#C[C@]1(CO)OC(n2cc(C#N)c(=O)[nH]c2=O)C[C@@H]1O` (stereo partly drawn) [compound 58, 1-((4S,5R)-5-ethynyl-4-hydroxy-5-(hydroxymethyl)tetrahydrofuran-2-yl)-2,4-dioxo-1,2,3,4-tetrahydropyrimidine-5-carbonitrile] gave an IC50 greater than 50000 nM.
The compound `CC[C@]1(CO)O[C@@H](n2cc(Br)c(=O)[nH]c2=O)C[C@@H]1O` [Cpd. No. 2, 5-bromo-1-((2R,4S,5R)-5-ethyl-4-hydroxy-5-(hydroxymethyl)tetrahydrofuran-2-yl)-4-hydroxypyrimidin-2(1H)-one] had an IC50 of 6900 nM.
In turn, `CC[C@]1(CO)O[C@@H](n2cnc3c(O)ncnc32)C[C@@H]1O` [Cpd. No. 1] returned an IC50 of 62 nM.
Compound `CC[C@]1(CO)O[C@@H](n2cnc3c(N)ncnc32)[C@H](O)[C@@H]1O` [compound 196, (2R,3S,4R,5R)-5-(6-amino-9H-purin-9-yl)-2-ethyl-2-(hydroxymethyl)tetrahydrofuran-3,4-diol] came in with an IC50 greater than 50000 nM.
`CC[C@]1(CO)O[C@@H](n2cnc3c(NC4CC4)ncnc32)C[C@@H]1O` [Cpd. No. 96, (2R,3S,5R)-5-(6-(cyclopropylamino)-9H-purin-9-yl)-2-ethyl-2-(hydroxymethyl)tetrahydrofuran-3-ol] had a 50% inhibitory concentration (IC50) of 7000 nM.
For the compound `C#C[C@]1(CO)OC(n2ccc(=O)[nH]c2=O)C[C@@H]1O` (stereo partly drawn) [compound 51, 1-((4S,5R)-5-ethynyl-4-hydroxy-5-(hydroxymethyl)tetrahydrofuran-2-yl)pyrimidine-2,4(1H,3H)-dione], half-maximal inhibition (IC50) required 5080 nM.
The compound `C=C[C@]1(CO)O[C@@H](n2cnc3c(O)nc(N)nc32)C[C@@H]1O` [Cpd. No. 9, 2-amino-9-((2R,4S,5R)-4-hydroxy-5-(hydroxymethyl)-5-vinyltetrahydrofuran-2-yl)-1H-purin-6(9H)-one] returned an IC50 of 13 nM.
`CC[C@]1(CO)O[C@@H](n2cnc3c(N)nc(Cl)nc32)[C@H](O)[C@@H]1O` [compound 195, (2R,3S,4R,5R)-5-(6-amino-2-chloro-9H-purin-9-yl)-2-ethyl-2-(hydroxymethyl)tetrahydrofuran-3,4-diol]: the IC50 is greater than 50000 nM.
For the compound `C#C[C@@]1(CO)C=C[C@H](n2ccc(=O)[nH]c2=O)O1` [compound 30, 1-((2R,5R)-5-ethynyl-5-(hydroxymethyl)-2,5-dihydrofuran-2-yl)pyrimidine-2,4(1H,3H)-dione], 16000 nM corresponded to half-maximal inhibition (IC50).
Turning to `C=C[C@]1(CO)O[C@@H](n2cnc3c(NC4CC4)nc(F)nc32)C[C@@H]1O` [Cpd. No. 5, (2R,3S,5R)-5-(6-(cyclopropylamino)-2-fluoro-9H-purin-9-yl)-2-(hydroxymethyl)-2-vinyltetrahydrofuran-3-ol], the IC50 is 469 nM.
With `C#C[C@@]1(CO)C=C[C@H](n2ccc3c(=O)[nH]cnc32)O1` [compound 34, 7-((2R,5R)-5-ethynyl-5-(hydroxymethyl)-2,5-dihydrofuran-2-yl)-3,7-dihydro-4H-pyrrolo[2,3-d]pyrimidin-4-one], the IC50 was greater than 50000 nM.
The same measure, in the same setting: to `COC[C@@H]1C=C[C@H](n2cc(C)c(=O)[nH]c2=O)O1` [compound 107, 1-((2R,5S)-5-(methoxymethyl)-2,5-dihydrofuran-2-yl)-5-methylpyrimidine-2,4(1H,3H)-dione] belongs 7300 nM; to `CC[C@]1(CO)O[C@@H](n2cnc3c(N)ncnc32)[C@@H](F)[C@@H]1O` [compound 192, (2R,3R,4S,5R)-5-(6-amino-9H-purin-9-yl)-2-ethyl-4-fluoro-2-(hydroxymethyl)tetrahydrofuran-3-ol], 122 nM.
In turn, `C#C[C@]1(CO)OC(n2cc(OC)c(=O)[nH]c2=O)C[C@@H]1O` (stereo partly drawn) [compound 59, 1-((4S,5R)-5-ethynyl-4-hydroxy-5-(hydroxymethyl)tetrahydrofuran-2-yl)-5-methoxypyrimidine-2,4(1H,3H)-dione] registered an IC50 of 20900 nM.
The same measure, in the same setting: to `C#C[C@]1(CO)O[C@@H](n2cnc3c(NC4CC4)nc(F)nc32)C[C@@H]1O` [compound 85, (2R,3S,5R)-5-(6-(cyclopropylamino)-2-fluoro-9H-purin-9-yl)-2-ethynyl-2-(hydroxymethyl)tetrahydrofuran-3-ol] belongs 124 nM.
`CC[C@]1(CO)O[C@@H](n2cnc3c(OC)nc(N)nc32)C[C@@H]1O` [Cpd. No. 125, (2R,3S,5R)-5-(2-amino-6-methoxy-9H-purin-9-yl)-2-ethyl-2-(hydroxymethyl)tetrahydrofuran-3-ol] gave an IC50 of 110 nM.
`C=C[C@]1(CO)O[C@@H](n2cc(F)c(=O)[nH]c2=O)C[C@@H]1O` [Cpd. No. 17, 5-fluoro-1-((2R,4S,5R)-4-hydroxy-5-(hydroxymethyl)-5-vinyltetrahydrofuran-2-yl)pyrimidine-2,4(1H,3H)-dione] yielded a half-maximal inhibitory concentration (IC50) of 2350 nM.
As for `C#C[C@]1(CO)OC(n2cc(Br)c(=O)[nH]c2=O)C[C@@H]1O` (stereo partly drawn) [compound 44, 5-bromo-1-((4S,5R)-5-ethynyl-4-hydroxy-5-(hydroxymethyl)tetrahydrofuran-2-yl)pyrimidine-2,4(1H,3H)-dione], the IC50 stood at 2200 nM.
`CC[C@]1(CO)OC(n2cc(Br)c(N)nc2=O)C[C@@H]1O` (stereo partly drawn) [Cpd. No. 70, 4-amino-5-bromo-1-((4S,5R)-5-ethyl-4-hydroxy-5-(hydroxymethyl)tetrahydrofuran-2-yl)pyrimidin-2(1H)-one]: the concentration for half-maximal inhibition (IC50) came to 432 nM.
The same measure, in the same setting: to `C#C[C@]1(CO)C=C[C@@H](n2cc(F)c(N)nc2=O)O1` [Cpd. No. 74, 4-amino-1-[(2S,5S)-5-ethynyl-5-(hydroxymethyl)-2H-furan-2-yl]-5-fluoro-pyrimidin-2-one] belongs greater than 50000 nM; to `C=C[C@]1(CO)OC(n2cc(Br)c(N)nc2=O)C[C@@H]1O` (stereo partly drawn) [compound 67, 4-amino-5-bromo-1-((4S,5R)-4-hydroxy-5-(hydroxymethyl)-5-vinyltetrahydrofuran-2-yl)pyrimidin-2(1H)-one], 4 nM; to `C=C[C@]1(CO)O[C@@H](n2cnc3c(O)ncnc32)C[C@@H]1O` [Cpd. No. 100, 9-((2R,4S,5R)-4-hydroxy-5-(hydroxymethyl)-5-vinyltetrahydrofuran-2-yl)-9H-purin-6-ol], 1700 nM.
In the case of `C#C[C@]1(CO)O[C@H](n2cnc3c(N)ncnc32)C[C@@H]1O` [compound 80, (2R,3S,5S)-5-(6-amino-9H-purin-9-yl)-2-ethynyl-2-(hydroxymethyl)tetrahydrofuran-3-ol], the 50% inhibitory concentration (IC50) worked out at 3700 nM.
On to `CC[C@]1(CO)O[C@H](n2cc(C)c(=O)[nH]c2=O)CC1O` (stereo partly drawn) [compound 71, 1-((2S,5R)-5-ethyl-4-hydroxy-5-(hydroxymethyl)tetrahydrofuran-2-yl)-5-methylpyrimidine-2,4(1H,3H)-dione], for which half-maximal inhibition (IC50) was put at 1600 nM.

Still in this experiment, the particulars now being: Human LINE-1 activity inhibition; HeLa cells, reporter plasmid pYX017, Firefly/Renilla, 72 h incubation.
Compound `CC[C@]1(CO)O[C@@H](n2cnc3c(N)nc(F)nc32)[C@@H](F)[C@@H]1O` [compound 191, (2R,3R,4S,5R)-5-(6-amino-2-fluoro-9H-purin-9-yl)-2-ethyl-4-fluoro-2-(hydroxymethyl)tetrahydrofuran-3-ol] had an IC50 of 56000 nM.
